Assay results reported in patent publication US20230301300A1, “HERBICIDAL COMPOSITIONS” (SYNGENTA CROP PROTECTION AG, priority 2020, published 2023).

What was measured:
Assay type in all cases: in vivo
[1] = tested on: Echinochloa crus-galli (ECHCG); test: B1 Post-Emergence Efficacy - Test 1; conditions: 1000 g/ha, after 13 days, five point scale
Outline: (§1)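 Pot-grown plants were sprayed 8 days after sowing (post-emergence) with compound at 1000 g/ha in acetone/water (50:50) containing 0.5% Tween 20. Glasshouse conditions were 24/16° C. day/night, 14 hours light, 65% humidity. Percentage damage was assessed after 13 days and scored on a 1–5 scale (5=80-100%; 1=0-19%).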

Solanum nigrum (SOLNI) = test: B1 Post-Emergence Efficacy - Test 1; conditions: 1000 g/ha, after 13 days, five point scale
Outline: as §1

Setaria faberi (SETFA) = test: B1 Post-Emergence Efficacy - Test 1; conditions: 1000 g/ha, after 13 days, five point scale
Outline: as §1

[2] = tested on: Amaranthus retoflexus (AMARE); test: B1 Post-Emergence Efficacy - Test 1; conditions: 1000 g/ha, after 13 days, five point scale
Outline: as §1

Lolium perenne (LOLPE) = test: B1 Post-Emergence Efficacy - Test 1; conditions: 1000 g/ha, after 13 days, five point scale
Outline: as §1

[3] = tested on: Ipomoea hederacea (IPOHE); test: B1 Post-Emergence Efficacy - Test 1; conditions: 1000 g/ha, after 13 days, five point scale
Outline: as §1

Brassica napus (BRSNN) = test: B2 Post-Emergence Efficacy - Test 2; conditions: 15 days after application, 0-100 scale
Outline: (§2)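 Herbicidal effect was rated visually from 0 (no damage) to 100 (complete kill) fifteen days after treatment. Seedlings had been raised for 12 days under controlled glasshouse conditions and then sprayed with the active ingredient formulated in IF50, diluted in water with 0.2% v/v Genapol X080 adjuvant.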

Orysa sativa (ORYSA) = test: B2 Post-Emergence Efficacy - Test 2; conditions: 15 days after application; for Herbicidal activity ORYSA: 0-100 scale; for Herbicidal activity on a 0-100 scale, ORYSA: 0=no damage, 100=total kill
Outline: as §2

Sida spinosa (SIDSP) = test: B2 Post-Emergence Efficacy - Test 2; conditions: 15 days after application, 0-100 scale
Outline: as §2

Kochia scoparia (KSHSC) = test: B2 Post-Emergence Efficacy - Test 2; conditions: 15 days after application, 0-100 scale
Outline: as §2

[4] = tested on: Amaranthus retroflexus (AMARE); test: B2 Post-Emergence Efficacy - Test 2; conditions: 15 days after application, 0-100 scale
Outline: as §2

[5] = tested on: Ipomoea hederacea (IPOHE); test: B2 Post-Emergence Efficacy - Test 2; conditions: 15 days after application, 0-100 scale
Outline: as §2

Beta vulgaris (BEAVA) = test: B2 Post-Emergence Efficacy - Test 2; conditions: 15 days after application, 0-100 scale
Outline: as §2

Veronica persica (VERPE) = test: B2 Post-Emergence Efficacy - Test 2; conditions: 15 days after application, 0-100 scale
Outline: as §2

Glycine max (GLXMA) = test: B2 Post-Emergence Efficacy - Test 2; conditions: 15 days after application; for Herbicidal activity GLXMA: 0-100 scale; for Herbicidal activity on a 0-100 scale, GLXMA: 0=no damage, 100=total kill
Outline: as §2

[6] = tested on: Xanthium strumarium (XANST); test: B2 Post-Emergence Efficacy - Test 2; conditions: 15 days after application, 0-100 scale
Outline: as §2

Avena fatua (AVEFA) = test: B2 Post-Emergence Efficacy - Test 2; conditions: 15 days after application, 0-100 scale
Outline: as §2

Cc1nn(C)c(=O)c(-c2c(F)ccc(Cl)c2CCc2ccc(F)cc2)c1O [Compound 1.048, 4-[3-chloro-6-fluoro-2-[2-(4-fluorophenyl)ethyl]phenyl]-5-hydroxy-2,6-dimethyl-pyridazin-3-one]
percentage damage caused to the plant, ECHCG [1]: 5 (5=80-100%)
percentage damage caused to the plant, SOLNI (Solanum nigrum (SOLNI)): 5 (5=80-100%)
percentage damage caused to the plant, SETFA (Setaria faberi (SETFA)): 5 (5=80-100%)
percentage damage caused to the plant, AMARE [2]: 5 (5=80-100%)
percentage damage caused to the plant, LOLPE (Lolium perenne (LOLPE)): 5 (5=80-100%)
percentage damage caused to the plant, IPOHE [3]: 5 (5=80-100%)
Herbicidal activity BRSNN (Brassica napus (BRSNN); 15 g/Ha): 90
Herbicidal activity BRSNN (Brassica napus (BRSNN); 30 g/Ha): 90
Herbicidal activity BRSNN (Brassica napus (BRSNN); 60 g/Ha): 90
Herbicidal activity BRSNN (Brassica napus (BRSNN); 125 g/Ha): 90
Herbicidal activity BRSNN (Brassica napus (BRSNN); 250 g/Ha): 90
Herbicidal activity BRSNN (Brassica napus (BRSNN); 500 g/Ha): 90
Herbicidal activity ORYSA (Orysa sativa (ORYSA); 15 g/Ha): 0
Herbicidal activity on a 0-100 scale, ORYSA (Orysa sativa (ORYSA); 15 g/Ha): 0
Herbicidal activity ORYSA (Orysa sativa (ORYSA); 30 g/Ha): 0
Herbicidal activity on a 0-100 scale, ORYSA (Orysa sativa (ORYSA); 30 g/Ha): 0
Herbicidal activity ORYSA (Orysa sativa (ORYSA); 60 g/Ha): 0
Herbicidal activity on a 0-100 scale, ORYSA (Orysa sativa (ORYSA); 60 g/Ha): 0
Herbicidal activity ORYSA (Orysa sativa (ORYSA); 125 g/Ha): 0
Herbicidal activity on a 0-100 scale, ORYSA (Orysa sativa (ORYSA); 125 g/Ha): 0
Herbicidal activity ORYSA (Orysa sativa (ORYSA); 250 g/Ha): 10
Herbicidal activity on a 0-100 scale, ORYSA (Orysa sativa (ORYSA); 250 g/Ha): 10
Herbicidal activity ORYSA (Orysa sativa (ORYSA); 500 g/Ha): 30
Herbicidal activity on a 0-100 scale, ORYSA (Orysa sativa (ORYSA); 500 g/Ha): 30
Herbicidal activity SIDSP (Sida spinosa (SIDSP); 15 g/Ha): 80
Herbicidal activity SIDSP (Sida spinosa (SIDSP); 30 g/Ha): 80
Herbicidal activity SIDSP (Sida spinosa (SIDSP); 60 g/Ha): 80
Herbicidal activity SIDSP (Sida spinosa (SIDSP); 125 g/Ha): 90
Herbicidal activity SIDSP (Sida spinosa (SIDSP); 250 g/Ha): 90
Herbicidal activity SIDSP (Sida spinosa (SIDSP); 500 g/Ha): 90
Herbicidal activity KCHSC (Kochia scoparia (KSHSC); 15 g/Ha): 0
Herbicidal activity KCHSC (Kochia scoparia (KSHSC); 30 g/Ha): 0
Herbicidal activity KCHSC (Kochia scoparia (KSHSC); 60 g/Ha): 10
Herbicidal activity KCHSC (Kochia scoparia (KSHSC); 125 g/Ha): 20
Herbicidal activity KCHSC (Kochia scoparia (KSHSC); 250 g/Ha): 50
Herbicidal activity KCHSC (Kochia scoparia (KSHSC); 500 g/Ha): 80
Herbicidal activity AMARE ([4]; 15 g/Ha): 60
Herbicidal activity AMARE ([4]; 30 g/Ha): 80
Herbicidal activity AMARE ([4]; 60 g/Ha): 90
Herbicidal activity AMARE ([4]; 125 g/Ha): 90
Herbicidal activity AMARE ([4]; 250 g/Ha): 100
Herbicidal activity AMARE ([4]; 500 g/Ha): 100
Herbicidal activity IPOHE ([5]; 15 g/Ha): 70
Herbicidal activity IPOHE ([5]; 30 g/Ha): 80
Herbicidal activity IPOHE ([5]; 60 g/Ha): 100
Herbicidal activity IPOHE ([5]; 125 g/Ha): 100
Herbicidal activity IPOHE ([5]; 250 g/Ha): 100
Herbicidal activity IPOHE ([5]; 500 g/Ha): 100
Herbicidal activity BEAVA (Beta vulgaris (BEAVA); 15 g/Ha): 70
Herbicidal activity BEAVA (Beta vulgaris (BEAVA); 30 g/Ha): 80
Herbicidal activity BEAVA (Beta vulgaris (BEAVA); 60 g/Ha): 80
Herbicidal activity BEAVA (Beta vulgaris (BEAVA); 125 g/Ha): 90
Herbicidal activity BEAVA (Beta vulgaris (BEAVA); 250 g/Ha): 90
Herbicidal activity BEAVA (Beta vulgaris (BEAVA); 500 g/Ha): 90
Herbicidal activity VERPE (Veronica persica (VERPE); 15 g/Ha): 60
Herbicidal activity VERPE (Veronica persica (VERPE); 30 g/Ha): 80
Herbicidal activity VERPE (Veronica persica (VERPE); 60 g/Ha): 90
Herbicidal activity VERPE (Veronica persica (VERPE); 125 g/Ha): 80
Herbicidal activity VERPE (Veronica persica (VERPE); 250 g/Ha): 100
Herbicidal activity VERPE (Veronica persica (VERPE); 500 g/Ha): 100
Herbicidal activity GLXMA (Glycine max (GLXMA); 15 g/Ha): 70
Herbicidal activity on a 0-100 scale, GLXMA (Glycine max (GLXMA); 15 g/Ha): 70
Herbicidal activity GLXMA (Glycine max (GLXMA); 30 g/Ha): 80
Herbicidal activity on a 0-100 scale, GLXMA (Glycine max (GLXMA); 30 g/Ha): 80
Herbicidal activity GLXMA (Glycine max (GLXMA); 60 g/Ha): 90
Herbicidal activity on a 0-100 scale, GLXMA (Glycine max (GLXMA); 60 g/Ha): 90
Herbicidal activity GLXMA (Glycine max (GLXMA); 125 g/Ha): 90
Herbicidal activity on a 0-100 scale, GLXMA (Glycine max (GLXMA); 125 g/Ha): 90
Herbicidal activity GLXMA (Glycine max (GLXMA); 250 g/Ha): 90
Herbicidal activity on a 0-100 scale, GLXMA (Glycine max (GLXMA); 250 g/Ha): 90
Herbicidal activity GLXMA (Glycine max (GLXMA); 500 g/Ha): 100
Herbicidal activity on a 0-100 scale, GLXMA (Glycine max (GLXMA); 500 g/Ha): 100
Herbicidal activity XANST ([6]; 60 g/Ha): 90
Herbicidal activity XANST ([6]; 125 g/Ha): 90
Herbicidal activity XANST ([6]; 250 g/Ha): 90
Herbicidal activity XANST ([6]; 500 g/Ha): 100
Herbicidal activity AVEFA (Avena fatua (AVEFA); 15 g/Ha): 10
Herbicidal activity AVEFA (Avena fatua (AVEFA); 30 g/Ha): 30
Herbicidal activity AVEFA (Avena fatua (AVEFA); 60 g/Ha): 60
Herbicidal activity AVEFA (Avena fatua (AVEFA); 125 g/Ha): 80
Herbicidal activity AVEFA (Avena fatua (AVEFA); 250 g/Ha): 90
Herbicidal activity AVEFA (Avena fatua (AVEFA); 500 g/Ha): 90
